The values below are quoted from earlier work in patent US20100240626A1, “ANTIEMETIC-ORAL CONTRACEPTIVE COMBINATION” (Lupin Limited, priority 2007, published 2010).

For this series the following is noted: 0.75 mg of levonorgestrel administered.

Structures are written as SMILES.

Regarding `C#C[C@]1(O)CC[C@H]2[C@@H]3CCC4=CC(=O)CC[C@@H]4[C@H]3CC[C@@]21CC` [levonorgestrel], the patients experiencing nausea result is “about 23.1%” and the patients experiencing vomiting was 5.6%.
